According to patent US20250041270A1, “SMALL MOLECULE DRUGS THAT REDUCE PROTEIN AGGREGATION” (BIOVENTURES, LLC, priority 2021, published 2025):
One block for each molecule: values may come before it.

Legend:
[1] = tested on: C. elegans strain CL2355; assay: Chemotaxis to n-butanol in Aβ1-42 expressing C. elegans; assay type: in vivo; settings: 0.1 μM
Protocol: Chemotaxis and paralysis assay)s in Aβ-tragsgenic C elegans strains CL2355 and CL4176. Transgenic C. elegans strains, expressing Aβ1-42 in neurons (C2355) or in muscle (CL4176), were grown at 20° C. with ample 1. coli (OP50) bacteria, and on day 1 of adult life worms were lysed to release eggs and thus generate a synchronized cohort. Eggs were then placed on I00-mm NGM-agar Petri dishes seeded with RNAi-expressing bacteria (E coil H-T1′15) targeting a GFAP orthologue, or empty-vector control bacteria. Worms at the L3-L4 transition were upshifted to 25.5° C. to induce human Aβ1-42 transgene expression and assayed after 48 hours. Chemotaxis (Dosanjh et al., 2010) and paralysis (Dostal and Link, 2010) assays were performed as described previously (Ayyadevara et al., 2017; Ayyadevara et al., 2016b; Ayyadevara et al., 2016d; Kakraba et al., 2019).
(§1) RNAi in C.elegans. RNA-mediated interference (RNAi) is achieved by feeding bacteria that express double-stranded RNA corresponding to an exonic fragment of the mRNA target (Ayyadevara et al., 2016c; Fire et al., 1991; Fire et al., 1998; Kakraba et al., 2019). Briefly, worm cultures were synchronized by alkaline hypochlorite lysis to release unlaid eggs. […] Worms on adult day 3 (5.5 days post-hatch) were imaged to assess total aggregate fluorescence (strain AM141), or were assessed for paralysis (VH255) or chemotaxis toward n-butanol (CL2355).

[2] = tested on: C. elegans strain VH255; assay: Paralysis assay in human tau-expressing C. elegans; assay type: in vivo; settings: 1-μM; compared with siRNA against ifp-1
Protocol: Paralysis assays in human tau-expressing C. elegans strain VH255. Transgenic C. elegans strain VH255, with pan-neuronal expression of human tau (Brandt et al., 2009), are maintained at 25° C. on agar plates overlaid with a lawn of E. coli (OP50) bacteria. Worms are lysed in alkaline hypochlorite solution to obtain unlaid eggs used to generate a synchronized culture. The eggs were then transferred to 100-mm NGM-agar plates, to which MSR1 or MSR2 had been added to a final concentration of 1 μM. For ifp-1 RNAi knockdown, the bacterial lawn consisted of strain HT115 expressing an exonic segment of double-stranded ifp-I RNA (see next section). The worms were washed and added to fresh, drug-equilibrated plates every two days. Assays were performed on day-3 adults to assess the fraction of paralyzed worms.

[3] = tested on: C. elegans strain AM141; assay: Q40::YFP aggregate fluorescence per worm; assay type: in vivo; settings: 5 days post-hatch
From the text: C. elegans strains: Nematode strains used in this study were all obtained from the Caenorhabditis Genetics Center (CGC; Minneapolis, MN). Nematode models of Alzheimer's disease-like arnyloidosis were CL4176 [smg-1^ts; myo-3p::Aβ1-42::let-851 3′-UTR; rol-6(sul006)] expressing human Aβ1-42 in muscle; and CL2355 [smg-l^ts; snb-1::Aβ1-42::3′UTR(long); mtl-2::gfp] expressing human Aβ1-42 in all neurons. Strain AM141 expresses a polyglutamine reporter (Q40::YFP) in muscle, and thus serves as a model of glutamine-tract aggregation similar to that observed in Huntington disease and several other neuropathologies (Morley et al., 2002). All strains were propagated at 20° C. on2% (w/v) agar plates containing nematode growth medium (NGM), overlaid with E col strain OP50 unless otherwise noted.
as §1

[4] = tested on: SH-SY5Y-APPSw cells; assay: Total sarkosyl-insoluble aggregate protein, SYPRO Ruby stained gels; assay type: cell-based, human; settings: for suppression of aggregate protein: cells treated 48 h, sarkosyl-insoluble fraction
Protocol: MSR1 treatment of SH-SY5Y-APPSw, cells. Human neuroblastoma (SH-SY5Y-APPSw) cells were grown as previously described (Kakraba et al., 2)19, Liu et al., 2005). SH-SY5Y-APPSw cells, expressing an aggregation-prone “Swedish” double mutant of amyloid precursor protein (APPSw), were grown in DMEM plus 10% (v/v) FBS at 37° C. Cells were suspended in trypsin/EDTA and rinsed in buffer prior to replating or harvesting. Immediately preceding assay, cells were grown 48 hr in the presence of 10-μM MSR1 dissolved in DMSO (0.02% final concentration), or 0.02% DMSO (solvent alone) for control cells. Cells were harvested, total protein was isolated, and aggregate proteins were purified as described below.
Isolation of aggregate proteins. Cultured human cells were collected, flash frozen in liquid nitrogen, and homogenized at 0° C. in the presence of buffer containing nonionic detergent (1% v/v NP40, 20-mM Hepes pH 7.4, 300-mM NaCl, 2-mM MgCl2, and protease/phosphatase inhibitors [CalBiochem]). Lysates were centrifuged (5 min, 3000 rpm at 4° C.) to remove debris. After removal of cytosolic proteins (soluble in 1% NP40 nonionic detergent) by centrifugation (18 min, 13,000×g at 4° C.), protein pellets were brought to pH 7.4 with 0.1-M HEPES buffer containing 1% v/v sarkosyl(sodium lauryl sarcosinate) and 5-mM EDTA, and centrifuged 30 min at 100,000×g. Pellet proteins (the sarkosyl-insoluble fraction) were resuspended in Laemmli loading buffer (containing 50-mM dithiothreitol and 2% v/v SDS, sodium dodecyl sulfate), heated 5 min at 95° C. to dissolve proteins soluble in this buffer, and separated by electrophoresis on 4-20% polyacrylamide gradient gels containing 1% v/v SDS. Gels were stained with SYPRO Ruby (ThermoFisher) or Coomassie Blue to visualize protein. Gel lanes were robotically cut into 1-mm slices, and digested thoroughly with trypsin. Proteins in each slice were identified by mass spectrometry as described previously (Ayyadevara et al., 2015; Ayyadevara et al., 2016a; Ayyadevara et al., 2016b; Ayyadevara et al., 2016c; Ayyadevara et al., 2016d; Balasubramaniam et al., 2018).

[5] = tested on: C. elegans; assay: Effect on C. elegans development; assay type: in vivo; settings: all doses tested, data not shown
[6] = tested on: neuroblastoma cells; assay: Initial testing for cytotoxicity in neuroblastoma cells; assay type: cell-based, human; settings: data not shown

SMILES: O=C(NC[C@H]1CC[C@H](CO)CC1)c1ccc(N2CCCC2)c(Cl)c1 [MSR1, 3-chloro-N-{[trans-4-(hydroxymethyl)cyclo-hexyl]methyl}-4-pyrrolidin-1-ylbenzamide]
chemotaxis restored to [1]: ~90%
paralysis caused by tau aggregation [2]: alleviated to a similar extent
reduction of aggregate intensity per worm ([3]; 10 μM): ~50%
reduction of aggregate intensity per worm ([3]; 0.1-μM): 35%
suppression of aggregate protein [4]: 60-75%
suppression of protein aggregation ([4]; summary statement: a variety of model systems): 60-75%

SMILES: O=C(c1cc2c([nH]c1=O)CCCC2)N1CCN(c2ccc(Cl)cn2)CC1 [MSR2, 3-{[4-(5-chloro-2-pyridinyl)-1-piperazinyl]carbonyl}-5,6,7,8-tetrahydro-2(1H)-quinolinone]
suppression of aggregate protein [4]: did not significantly reduce

C. elegans development [5]: delay C. elegans development
SMILES: O=C(c1ccc(N2CCCC2)c(Cl)c1)N1CCN(c2ccccn2)CC1 [MSR3, 1-(3-chloro-4-pyrrolidin-1-ylbenzoyl)-4-pyridin-2-ylpiperazine]
cytotoxicity [6]: cytotoxic
